{
  "source": "patent US20080254114A1",
  "about": "“Controlled Release Compositions Comprising Heterocyclic Amide Derivative Nanoparticles” (Elan Corporation plc, priority 2005, published 2008)",
  "origin": "cited, not measured here",
  "key": {"[1]": {"system": "leukotrienes (LTC4, LTD4 and LTE4)", "conditions": "conducting airway smooth muscle, in vitro"}, "LTD4": {"system": "LTD4", "conditions": "inhaled LTD4"}, "[2]": {"system": "airway responses to antigen", "conditions": "sensitized sheep, inhalational challenge"}, "[3]": {"conditions": "administration with food; high fat meal and high protein meal, two separate studies"}},
  "data": [
    {"smiles": "COc1cc(C(=O)NS(=O)(=O)c2ccccc2C)ccc1Cc1cn(C)c2ccc(NC(=O)OC3CCCC3)cc12", "note": "[Zafirlukast, 4-(5-cyclopentyloxy-carbonylamino-1-methyl-indol-3-ylmethyl)-3-methoxy-N-o-tolylsulfonylbenzamide]", "values": [
      {"measurement": "contractile activity of LTC4, LTD4 and LTE4", "setting": "[1]", "value": "antagonized"},
      {"measurement": "LTD4-induced influx of eosinophils into animal lungs", "setting": "LTD4", "value": "inhibited"},
      {"measurement": "airway responses to antigen (early- and late-phase response, nonspecific hyperresponsiveness)", "setting": "[2]", "value": "suppressed"},
      {"measurement": "solubility in acetone", "setting": "acetone", "value": "freely soluble"},
      {"measurement": "solubility in dimethyl-sulfoxide", "setting": "dimethyl-sulfoxide", "value": "freely soluble"},
      {"measurement": "solubility in methanol", "setting": "methanol", "value": "slightly soluble"},
      {"measurement": "solubility in tetrahydrofuran", "setting": "tetrahydrofuran", "value": "freely soluble"},
      {"measurement": "solubility in water", "setting": "water", "value": "practically insoluble"},
      {"measurement": "increase in bronchial hyperresponsiveness to inhaled histamine", "setting": "bronchoconstriction; following inhaled allergen challenge", "value": "attenuated"},
      {"measurement": "early- and late-phase reaction caused by inhalation of antigens (grass, cat dander, ragweed, mixed antigens)", "setting": "bronchoconstriction; patients with asthma, pretreatment with single doses", "value": "attenuated"},
      {"measurement": "bronchoconstriction caused by sulfur dioxide and cold air", "setting": "bronchoconstriction; patients with asthma, pretreatment with single oral doses", "value": "inhibited"},
      {"measurement": "reduction of mean bioavailability by food", "setting": "[3]", "value": "approximately 40%"}
    ]}
  ]
}
